# Values of other authors, collected in PMC8780741, “Integration of In Silico, In Vitro and In Situ Tools for the Preformulation and Characterization of a Novel Cardio-Neuroprotective Compound during the Early Stages of Drug Development” (Pharmaceutics, 2022).
# Design: method as in PMID 15832504
# Conditions: reference compound for the permeability cut-off; cited from earlier work
structure (smiles),measurement,value
COCCc1ccc(OCC(O)CNC(C)C)cc1 (stereo not shown) [Metoprolol],logP,1.72
